According to PMC9084241, “The structure and configuration changes of multifunctional peptide vectors enhance gene delivery efficiency” (RSC Advances, 2018):
Where a SMILES comes first, the peptide text is derived from it. [ ]: non-standard residue; d: D form. The star is where a group is joined. Stearoyl = CCCCCCCCCCCCCCCCCC(=O)*

Assay: Enzymatic hydrolysis stability
Assay type: in vitro ADME
Details: Tritirachium album (Parengyodontium album), peptide 8.0 mg/mL and proteinase K 2.0 mg/mL in PBS mixed 0.5 mL + 0.5 mL, 37 °C, HPLC peak area, mean n = 3
Experimental: Peptides and proteinase K were dissolved in PBS and then diluted to 8.0 mg mL^−1 and 2.0 mg mL^−1, respectively. For each peptide tested, 0.5 mL of peptide solution was mixed with 0.5 mL proteinase K solution and then incubated in a water bath at 37 °C. After 0, 5, 15, 30, 60, and 120 min, a 10 µL sample of the mixture was withdrawn and 30 µL of a precipitator solution (1.0 mL of TFA in 9.0 mL acetonitrile) was added. Each sample was subsequently vortexed for 5 s and centrifuged for 10 min at 4 °C. Supernatants were analyzed by HPLC, with the peak area of each peptide recorded and used to calculate hydrolysis efficiency.

| SMILES | metabolised at 1 h, 4 mg/mL (within 60 min, read-out: peptide degraded by proteinase K) | remaining at 1 h, 4 mg/mL (60 min, read-out: peptide remaining after incubation with proteinase K) |
| --- | --- | --- |
| CCCCCCCCCCCCCCCCCC(=O)N[C@@H](CS)C(=O)N[C@@H](CC(C)C)C(=O)N[C@@H](CC(C)C)C(=O)N[C@@H](CCCCN)C(=O)N[C@@H](CCCCN)C(=O)N[C@@H](CC(C)C)C(=O)N[C@@H](CC(C)C)C(=O)N[C@@H](CCCCN)C(=O)N[C@@H](CCCCN)C(=O)N[C@@H](CC(C)C)C(=O)N[C@@H](CC(C)C)C(=O)N[C@@H](CCCCN)C(=O)N[C@@H](CCCCN)C(=O)N[C@@H](CS)C(=O)N[C@@H](Cc1c[nH]cn1)C(=O)N[C@@H](Cc1c[nH]cn1)C(=O)N[C@@H](Cc1c[nH]cn1)C(=O)N[C@@H](Cc1c[nH]cn1)C(=O)N[C@@H](Cc1c[nH]cn1)C(=O)N[C@@H](Cc1c[nH]cn1)C(=O)N[C@@H](CCCNC(=N)N)C(=O)N[C@@H](CCCNC(=N)N)C(=O)N[C@@H](CCCNC(=N)N)C(=O)N[C@@H](CCCNC(=N)N)C(=O)N[C@@H](CCCNC(=N)N)C(=O)N[C@@H](CCCNC(=N)N)C(=O)N[C@@H](CCCNC(=N)N)C(=O)N[C@@H](CCCNC(=N)N)C(=O)N[C@@H](CCCNC(=N)N)C(N)=O [P-03] (Stearoyl-CLLKKLLKKLLKKCHHHHHHRRRRRRRRR-NH2) | 82% | – |
| CCCCCCCCCCCCCCCCCC(=O)N[C@H](CS)C(=O)N[C@H](CC(C)C)C(=O)N[C@H](CC(C)C)C(=O)N[C@H](CCCCN)C(=O)N[C@H](CCCCN)C(=O)N[C@H](CC(C)C)C(=O)N[C@H](CC(C)C)C(=O)N[C@H](CCCCN)C(=O)N[C@H](CCCCN)C(=O)N[C@H](CC(C)C)C(=O)N[C@H](CC(C)C)C(=O)N[C@H](CCCCN)C(=O)N[C@H](CCCCN)C(=O)N[C@H](CS)C(=O)N[C@H](Cc1c[nH]cn1)C(=O)N[C@H](Cc1c[nH]cn1)C(=O)N[C@H](Cc1c[nH]cn1)C(=O)N[C@H](Cc1c[nH]cn1)C(=O)N[C@H](Cc1c[nH]cn1)C(=O)N[C@H](Cc1c[nH]cn1)C(=O)N[C@H](CCCNC(=N)N)C(=O)N[C@H](CCCNC(=N)N)C(=O)N[C@H](CCCNC(=N)N)C(=O)N[C@H](CCCNC(=N)N)C(=O)N[C@H](CCCNC(=N)N)C(=O)N[C@H](CCCNC(=N)N)C(=O)N[C@H](CCCNC(=N)N)C(=O)N[C@H](CCCNC(=N)N)C(=O)N[C@H](CCCNC(=N)N)C(N)=O [P-04] (Stearoyl-[dC][dL][dL][dK][dK][dL][dL][dK][dK][dL][dL][dK][dK][dC][dH][dH][dH][dH][dH][dH][dR][dR][dR][dR][dR][dR][dR][dR][dR]-NH2) | – | 70% |
